Source: US20170240592A1, “GADD45BETA/MKK7 INHIBITOR FOR THE TREATMENT OF A RESISTANT HAEMATOLOGICAL MALIGNANCY” (IMPERIAL INNOVATIONS LIMITED, priority 2014, published 2017)

Assays:
[1] = system: medullary KMS-12 multiple myeloma xenografts; format: in vivo, NOD/SCID mice; conditions: 29 mg/kg/day intermittent infusion over 8 weeks; experimental end-point day 161
Description: Mice were housed in the animal facilities at Hammersmith. All experiments were conducted under PPL 70/6874, after approval by the Imperial College Ethical Review Process and the Home Office. For the plasmacytoma model, NOD/SCID mice (NOD.CB17-Prkdc^scid/IcrCrl; Charles River) were injected subcutaneously with 1.0×10^7 U266 or KMS-11 multiple myeloma cells, and then randomized into treatment groups and treated by infusion, as shown. Tumour volumes were measured as described in Mauro et al., 2011. For the orthotopic multiple myeloma model, mice of the same strain were sub-lethally irradiated and then injected intravenously with 1.0×10^7 KMS-12-BM multiple myeloma cells, as described in Rabin et al., 2007). […] Animals were monitored daily and euthanized on day 161 of treatment start or when they reached any of the end-points in the PPL. […]
For experiments in the medullary xenograft model, 6 to 8-week old male NOD/SCID mice (NOD.CB17-Prkdc^scid/IcrCrl; Charles River) were sub-lethally irradiated (3.50 Gy) and, then, injected intraperitoneally with purified anti-CD122 monoclonal antibody (200 μg/mouse), as above. […] Animals were monitored daily for weight loss and other clinical signs of medullary disease, such as hind limb paralysis and behavioural changes, and euthanized with CO2 on day 161 of treatment start or when the disease severity reached any of the end-points stated in the PPL. […]

[2] = mouse, in vivo, iv, 10 mg/kg
Description: In vitro pharmacokinetic assays were performed according to established, in-house protocols and included: plasma stability (human), thermodynamic solubility (PBS pH 7.4, at 37° C. for 14 days), microsomal stability (human), plasma protein binding (PPB; mouse and human), and distribution coefficient (Log D). In vivo pharmacokinetic analyses were also performed at Cyprotex according to established, in-house protocols. Briefly, the peptides were dissolved in PBS and administered by single intravenous injection to CD1 male mice at the dose of 10 mg/kg (25-30 g of total body weight; n=3 mice per time point per compound). Blood samples were collected in heparinized tubes at up to 7 time points after this injection (i.e. 0.08, 0.25, 0.5, 1, 2, 4 and 8 hr), and the plasma concentrations of the test peptide were determined at each time point by LC-MS/MS, using a five-point standard curve covering a peptide concentration range from 3 to 3,000 ng/mL. Standard curves were prepared using blank plasma matrices and treated in the same manner as the test samples. […] Values were calculated from the data of the peptide plasma concentration versus time curves using a non-compartmental model analysis, as described elsewhere (Groulx, 2006; Landaw and Di Stefano 3rd, 1982). The doses of z-DTP2 and DTP3 predicted to achieve the therapeutic plasma concentration of 1 μM at the steady state were calculated from the measured pharmacokinetic values using the following equation: k0=k1×Vd×Cp (where Vd is expressed in L/kg; Cp is the plasma concentration at the steady state expressed in mg/L; k0 is the zero order input expressed in mg/kg/hr; k1 is the first order elimination constant [0.693/t1/2]).

With `CC(=O)N[C@H](Cc1ccc(O)cc1)C(=O)N[C@H](CCCNC(=N)N)C(=O)N[C@H](Cc1ccccc1)C(N)=O` [DTP3, Acetyl-Tyr-Arg-Phe-NH2] the “median OS” value [1] was over 161 days, the “plasma clearance (CL) compared with z-DTP2” value [2] was “significantly lower” and the “terminal half-life (t1/2) compared with z-DTP2” value [2] was “somewhat shorter”. The “volume of distribution (Vd) compared with z-DTP2” value [2] was “much lower”.
